Experiments:
Format in all cases: in vivo
[1] = test system: barnyardgrass (Echinochloa crus-galli); test: Test A pre/postemergence
Outline: (§1)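 Visual injury scores on a 0–100 scale, 100 being complete control, were assigned roughly ten days after treatment by comparison with untreated greenhouse controls. Test chemicals, formulated with surfactant in non-phytotoxic solvent, were sprayed onto soil preemergence and onto 1–2-leaf plants 2–10 cm tall postemergence.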

[2] = test system: crabgrass (Digitaria sanguinalis); test: Test A pre/postemergence
Outline: as §1

[3] = test system: giant foxtail (Setaria faberi); test: Test A pre/postemergence
Outline: as §1

[4] = test system: morningglory (Ipomoea spp.); test: Test A pre/postemergence
Outline: as §1

[5] = test system: redroot pigweed (Amaranthus retroflexus); test: Test A pre/postemergence
Outline: as §1

[6] = test system: velvetleaf (Abutilon theophrasti); test: Test A pre/postemergence
Outline: as §1

[7] = test system: barnyardgrass (Echinochloa crus-galli); test: Test B flooded paddy test; details: Flood, scale 0 to 100
Method: (§2) At the same time, plants selected from these crop and weed species and also blackgrass (Alopecurus myosuroides) and wild oat (Avena fatua) were treated with postemergence applications of test chemicals formulated in the same manner. Plants ranged in height from 2 to 18 cm (1- to 4-leaf stage) for postemergence treatments. Plant species in the flooded paddy test consisted of rice (Oryza sativa), umbrella sedge (Cyperus difformis), duck salad (Heteranthera limosa) and barnyardgrass (Echinochloa crus-galli) grown to the 2-leaf stage for testing. Treated plants and controls were maintained in a greenhouse for 13 to 15 days, after which time all species were compared to controls and visually evaluated. Plant response ratings, summarized in Table B, are based on a scale of 0 to 100 where 0 is no effect and 100 is complete control. A dash (-) response means no test result.

[8] = test system: duck salad (Heteranthera limosa); test: Test B flooded paddy test; details: Flood, scale 0 to 100
Method: as §2

rice (Oryza sativa) = test: Test B flooded paddy test; details: Flood, scale 0 to 100
Method: as §2

[9] = test system: umbrella sedge (Cyperus difformis); test: Test B flooded paddy test; details: Flood, scale 0 to 100
Method: as §2

[10] = test system: barnyardgrass (Echinochloa crus-galli); test: Test E flooded paddy water application; details: Flood, 21 days, scale 0 to 100 (0 no effect, 100 complete control)
Outline: (§3)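 Weeds sown in sterilized Tama silt loam (2.6% organic matter), greenhouse 29.5/26.7° C, 16-h photoperiod; at 2.0–2.5-leaf stage pots flooded to 3 cm and compound added to paddy water. Visual rating vs untreated controls after 21 days, 0 (no effect) to 100 (complete control).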

[11] = test system: bearded (brdd.) sprangletop (Leptochloa fusca ssp. fascicularis); test: Test E flooded paddy water application; details: Flood, 21 days, scale 0 to 100 (0 no effect, 100 complete control)
Outline: as §3

[12] = test system: ducksalad (Heteranthera limosa); test: Test E flooded paddy water application; details: Flood, 21 days, scale 0 to 100 (0 no effect, 100 complete control)
Outline: as §3

[13] = test system: early watergrass (Echinochloa oryzoides); test: Test E flooded paddy water application; details: Flood, 21 days, scale 0 to 100 (0 no effect, 100 complete control)
Outline: as §3

[14] = test system: junglerice (Echinochloa colona); test: Test E flooded paddy water application; details: Flood, 21 days, scale 0 to 100 (0 no effect, 100 complete control)
Outline: as §3

[15] = test system: late watergrass (Echinochloa oryzicola); test: Test E flooded paddy water application; details: Flood, 21 days, scale 0 to 100 (0 no effect, 100 complete control)
Outline: as §3

[16] = test system: purple redstem (Ammannia coccinea); test: Test E flooded paddy water application; details: Flood, 21 days, scale 0 to 100 (0 no effect, 100 complete control)
Outline: as §3

[17] = test system: rice flatsedge (Cyperus iria); test: Test E flooded paddy water application; details: Flood, 21 days, scale 0 to 100 (0 no effect, 100 complete control)
Outline: as §3

[18] = test system: smallflower umbrella sedge (Cyperus difformis); test: Test E flooded paddy water application; details: Flood, 21 days, scale 0 to 100 (0 no effect, 100 complete control)
Outline: as §3

[19] = test system: transplanted rice seedlings (Oryza sativa cv. ‘Japonica-M202’); test: Test E flooded paddy water application; details: Flood, 21 days, scale 0 to 100 (0 no effect, 100 complete control)
Outline: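 Response scored visually on a 0–100 scale (100 = complete control) at 21 days against untreated pots. Treatment was into paddy water 3 cm deep over silt loam, with plants at the 2.0–2.5-leaf stage, grown under 16-h light at 29.5/26.7 °C day/night.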

[20] = test system: water seeded rice seedlings (Oryza sativa cv. ‘Japonica-M202’); test: Test E flooded paddy water application; details: Flood, 21 days, scale 0 to 100 (0 no effect, 100 complete control)
Outline: as §3

[21] = Postemergence, 125 g ai/ha, 0 to 100 scale (0 no effect, 100 complete control)
[22] = Postemergence, 500 g ai/ha, 0 to 100 scale (0 no effect, 100 complete control)
[23] = Preemergence, 125 g ai/ha, 0 to 100 scale where 0 is no effect and 100 is complete control, approximately ten days
[24] = Preemergence, 500 g ai/ha, 0 to 100 scale where 0 is no effect and 100 is complete control, approximately ten days

CCOC(=O)c1nc(-c2ccc(C(F)(F)F)cc2)nc(N)c1Br [Compound 60]
30: Plant response rating, Velvetleaf [6, 21] | Plant response rating, Sedge, Umbrella ([9]; 500 g ai/ha)
20: Plant response rating, Morningglory [4, 22] | Plant response rating, Barnyardgrass ([7]; 500 g ai/ha)
80: Plant response rating, Ducksalad ([8]; 125 g ai/ha)
0: Plant response rating, Barnyardgrass [1, 21] | Plant response rating, Barnyardgrass [1, 22] | Plant response rating, Barnyardgrass [1, 23] | Plant response rating, Barnyardgrass [1, 24] | Plant response rating, Crabgrass [2, 21] | Plant response rating, Crabgrass [2, 22] | Plant response rating, Crabgrass [2, 23] | Plant response rating, Crabgrass [2, 24] | Plant response rating, Foxtail, Giant [3, 21] | Plant response rating, Foxtail, Giant [3, 22] | Plant response rating, Foxtail, Giant [3, 23] | Plant response rating, Foxtail, Giant [3, 24] | Plant response rating, Morningglory [4, 21] | Plant response rating, Morningglory [4, 23] | Plant response rating, Morningglory [4, 24] | Plant response rating, Pigweed [5, 23] | Plant response rating, Pigweed [5, 24] | Plant response rating, Velvetleaf [6, 23] | Plant response rating, Velvetleaf [6, 24] | Plant response rating, Barnyardgrass ([7]; 125 g ai/ha) | Plant response rating, Rice (rice (Oryza sativa); 125 g ai/ha) | Plant response rating, Rice (rice (Oryza sativa); 500 g ai/ha) | Plant response rating, Sedge, Umbrella ([9]; 125 g ai/ha)
10: Plant response rating, Pigweed [5, 21]
40: Plant response rating, Pigweed [5, 22] | Plant response rating, Velvetleaf [6, 22]
90: Plant response rating, Ducksalad ([8]; 500 g ai/ha)

Nc1nc(C2CC2)nc(C(=O)OCc2ccc(Cl)cc2)c1Cl [Compound 80]
100: Plant response rating, Morningglory [4, 24]
70: Plant response rating, Crabgrass [2, 22] | Plant response rating, Foxtail, Giant [3, 21] | Plant response rating, Foxtail, Giant [3, 24] | Plant response rating, Ducksalad ([8]; 500 g ai/ha) | Plant response rating, Sedge, Umbrella ([9]; 500 g ai/ha)
10: Plant response rating, Barnyardgrass [1, 23]
45: Plant response rating, Crabgrass [2, 23]
95: Plant response rating, Morningglory [4, 22] | Plant response rating, Pigweed [5, 22]
30: Plant response rating, Crabgrass [2, 21]
90: Plant response rating, Barnyardgrass [1, 22] | Plant response rating, Foxtail, Giant [3, 22] | Plant response rating, Morningglory [4, 21] | Plant response rating, Morningglory [4, 23] | Plant response rating, Pigweed [5, 24] | Plant response rating, Velvetleaf [6, 22] | Plant response rating, Velvetleaf [6, 24]
65: Plant response rating, Pigweed [5, 21] | Plant response rating, Velvetleaf [6, 21]
0: Plant response rating, Barnyardgrass ([7]; 125 g ai/ha) | Plant response rating, Rice (rice (Oryza sativa); 125 g ai/ha)
80: Plant response rating, Barnyardgrass [1, 24] | Plant response rating, Pigweed [5, 23]
50: Plant response rating, Barnyardgrass ([7]; 500 g ai/ha) | Plant response rating, Ducksalad ([8]; 125 g ai/ha) | Plant response rating, Rice (rice (Oryza sativa); 500 g ai/ha)
15: Plant response rating, Foxtail, Giant [3, 23]
20: Plant response rating, Sedge, Umbrella ([9]; 125 g ai/ha)
75: Plant response rating, Velvetleaf [6, 23]
55: Plant response rating, Barnyardgrass [1, 21]
85: Plant response rating, Crabgrass [2, 24]

CCOC(=O)c1nc(-c2ccc(C)c(C)c2)nc(N)c1Br [Compound 70]
60: Plant response rating, Velvetleaf [6, 22] | Sedge, Umbrella plant response rating ([18]; 250 g ai/ha)
100: Ducksalad plant response rating ([12]; 64 g ai/ha) | Ducksalad plant response rating ([12]; 125 g ai/ha) | Ducksalad plant response rating ([12]; 250 g ai/ha)
65: Flatsedge, Rice plant response rating ([17]; 250 g ai/ha)
5: Plant response rating, Crabgrass [2, 23] | Plant response rating, Foxtail, Giant [3, 23] | Plant response rating, Foxtail, Giant [3, 24]
35: Plant response rating, Velvetleaf [6, 21] | Plant response rating, Velvetleaf [6, 24]
30: Flatsedge, Rice plant response rating ([17]; 125 g ai/ha)
20: Plant response rating, Crabgrass [2, 22] | Plant response rating, Crabgrass [2, 24] | Plant response rating, Pigweed [5, 22] | Plant response rating, Velvetleaf [6, 23]
0: Plant response rating, Barnyardgrass [1, 21] | Plant response rating, Barnyardgrass [1, 22] | Plant response rating, Barnyardgrass [1, 23] | Plant response rating, Barnyardgrass [1, 24] | Plant response rating, Crabgrass [2, 21] | Plant response rating, Foxtail, Giant [3, 21] | Plant response rating, Foxtail, Giant [3, 22] | Plant response rating, Morningglory [4, 21] | Plant response rating, Morningglory [4, 23] | Plant response rating, Morningglory [4, 24] | Plant response rating, Pigweed [5, 23] | Barnyardgrass plant response rating ([10]; 32 g ai/ha) | Barnyardgrass plant response rating ([10]; 64 g ai/ha) | Barnyardgrass plant response rating ([10]; 125 g ai/ha) | Barnyardgrass plant response rating ([10]; 250 g ai/ha) | Plant response rating, Barnyardgrass ([10]; 16 g ai/ha) | Sprangletop, Brdd. plant response rating ([11]; 32 g ai/ha) | Sprangletop, Brdd. plant response rating ([11]; 64 g ai/ha) | Sprangletop, Brdd. plant response rating ([11]; 125 g ai/ha) | Sprangletop, Brdd. plant response rating ([11]; 250 g ai/ha) | Plant response rating, Sprangletop, Brdd. ([11]; 16 g ai/ha) | Plant response rating, Ducksalad ([12]; 16 g ai/ha) | Watergrass, Early plant response rating ([13]; 32 g ai/ha) | Watergrass, Early plant response rating ([13]; 64 g ai/ha) | Watergrass, Early plant response rating ([13]; 125 g ai/ha) | Watergrass, Early plant response rating ([13]; 250 g ai/ha) | Plant response rating, Watergrass, Early ([13]; 16 g ai/ha) | Junglerice plant response rating ([14]; 32 g ai/ha) | Junglerice plant response rating ([14]; 64 g ai/ha) | Junglerice plant response rating ([14]; 125 g ai/ha) | Junglerice plant response rating ([14]; 250 g ai/ha) | Plant response rating, Junglerice ([14]; 16 g ai/ha) | Watergrass, Late plant response rating ([15]; 32 g ai/ha) | Watergrass, Late plant response rating ([15]; 64 g ai/ha) | Watergrass, Late plant response rating ([15]; 125 g ai/ha) | Watergrass, Late plant response rating ([15]; 250 g ai/ha) | Plant response rating, Watergrass, Late ([15]; 16 g ai/ha) | Redstem plant response rating ([16]; 32 g ai/ha) | Redstem plant response rating ([16]; 64 g ai/ha) | Redstem plant response rating ([16]; 125 g ai/ha) | Redstem plant response rating ([16]; 250 g ai/ha) | Plant response rating, Redstem ([16]; 16 g ai/ha) | Flatsedge, Rice plant response rating ([17]; 32 g ai/ha) | Flatsedge, Rice plant response rating ([17]; 64 g ai/ha) | Plant response rating, Flatsedge, Rice ([17]; 16 g ai/ha) | Sedge, Umbrella plant response rating ([18]; 32 g ai/ha) | Sedge, Umbrella plant response rating ([18]; 64 g ai/ha) | Sedge, Umbrella plant response rating ([18]; 125 g ai/ha) | Plant response rating, Sedge, Umbrella ([18]; 16 g ai/ha) | Rice, Transplanted plant response rating ([19]; 32 g ai/ha) | Rice, Transplanted plant response rating ([19]; 64 g ai/ha) | Rice, Transplanted plant response rating ([19]; 125 g ai/ha) | Rice, Transplanted plant response rating ([19]; 250 g ai/ha) | Plant response rating, Rice, Transplanted ([19]; 16 g ai/ha) | Rice, Water Seeded plant response rating ([20]; 32 g ai/ha) | Rice, Water Seeded plant response rating ([20]; 64 g ai/ha) | Rice, Water Seeded plant response rating ([20]; 125 g ai/ha) | Rice, Water Seeded plant response rating ([20]; 250 g ai/ha) | Plant response rating, Rice, Water Seeded ([20]; 16 g ai/ha)
10: Plant response rating, Morningglory [4, 22] | Plant response rating, Pigweed [5, 24]
15: Plant response rating, Pigweed [5, 21]
40: Ducksalad plant response rating ([12]; 32 g ai/ha)

— patent publication US8802597B2, “Herbicidal pyrimidines” (E I du Pont de Nemours and Company, priority 2003, dated 2014)
